Consider 13 compounds from PubChem BioAssay (NCI).

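Protocol summary: plate cells (96-well), add compound at 5 concentrations, incubate 48 h, interpolate endpoints linearly. The concentration for full growth arrest is given as TGI.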

Test systems include ACHN renal; EKVX NSCLC; HCT-15 colon; HS 578T breast; MDA-N; OVCAR-3 ovarian; OVCAR-5 ovarian; SK-MEL-5 melanoma; SW-620 colon; UO-31 renal.
What all share (test): NCI tumour cell line growth inhibition, 48 h

With `COc1ccc(OC)c(NC2=NCCO2)c1`, the TGI with ACHN renal, in the assay on EKVX NSCLC, with HCT-15 colon, in the assay with HS 578T breast, in the assay on MDA-N and in the assay on OVCAR-3 ovarian was above 100 µM in each case. In addition, the TGI in the assay with OVCAR-5 ovarian was above 100 µM; in the assay on SK-MEL-5 melanoma, above 100 µM; with SW-620 colon, 28.2 µM; with UO-31 renal, above 100 µM.

For `CC(=O)NNc1nc(C)c(C(/C=C/c2ccc([N+](=O)[O-])cc2)=N/NC(N)=O)s1`, the TGI in the assay with ACHN renal, in the assay with EKVX NSCLC, with HCT-15 colon, in the assay on HS 578T breast, in the assay with MDA-N and in the assay on OVCAR-3 ovarian was above 100 µM throughout. For the same compound, the TGI with OVCAR-5 ovarian, with SK-MEL-5 melanoma, in the assay on SW-620 colon and in the assay with UO-31 renal was above 100 µM each time.

Turning to `N/C(=N\NC(=O)c1nc2ccccc2s1)c1ccccn1`, the TGI in the assay with ACHN renal is 16.5 µM; with EKVX NSCLC, above 63.6 µM; in the assay on HCT-15 colon, 31.9 µM; in the assay with HS 578T breast it was above 100 µM; in the assay on MDA-N, above 100 µM; in the assay with OVCAR-3 ovarian, above 100 µM. For the same compound, the TGI was 65.7 µM with OVCAR-5 ovarian, 21.3 µM in the assay with SK-MEL-5 melanoma, above 100 µM in the assay on SW-620 colon and 15.8 µM with UO-31 renal.

`N#CCCN(CCC#N)c1ccc(/C=C2\SC(=S)NC2=O)cc1`: the TGI in the assay on ACHN renal, in the assay with EKVX NSCLC, with HCT-15 colon, in the assay with HS 578T breast, in the assay with MDA-N and in the assay with OVCAR-3 ovarian was above 100 µM each time. Moreover, the TGI in the assay with OVCAR-5 ovarian, in the assay on SK-MEL-5 melanoma, with SW-620 colon and in the assay with UO-31 renal was above 100 µM in each case.

With `CC(=O)OC12CC(C(F)(F)F)(C(F)(F)F)OC1(OC(C)=O)CC(C(F)(F)F)(C(F)(F)F)O2` (stereo not drawn), the TGI with ACHN renal was 2.38 µM; with HCT-15 colon, above 100 µM; in the assay with HS 578T breast, above 100 µM; in the assay with MDA-N, above 100 µM; in the assay with OVCAR-3 ovarian it was above 100 µM; in the assay on OVCAR-5 ovarian it was 90.6 µM. Moreover, the TGI was 5.81 µM with SK-MEL-5 melanoma, above 100 µM in the assay with SW-620 colon and 13.3 µM with UO-31 renal.

Turning to `COCCOC(C)C(=O)C(O)S(=O)(=O)O` (stereo not drawn), the TGI in the assay with ACHN renal, in the assay with EKVX NSCLC, with HCT-15 colon, with HS 578T breast, in the assay with MDA-N and in the assay on OVCAR-3 ovarian was above 100 µM each time. For the same compound, the TGI in the assay with OVCAR-5 ovarian, in the assay on SK-MEL-5 melanoma, in the assay with SW-620 colon and with UO-31 renal was above 100 µM in each case.

With `Cn1c(=O)c2c(nc3n2CCC(=O)N3CCCCl)n(C)c1=O`, the TGI with ACHN renal, in the assay on EKVX NSCLC, with HCT-15 colon, with HS 578T breast, in the assay on MDA-N and with OVCAR-3 ovarian was above 100 µM each time. Also, the TGI in the assay on OVCAR-5 ovarian, in the assay with SK-MEL-5 melanoma, with SW-620 colon and in the assay on UO-31 renal was above 100 µM each time.

Consider `COC(=O)[C@H]1[C@@H](O)[C@@]2(O)c3c(OC)cc(OC)cc3O[C@@]2(c2ccc3c(c2)OCO3)[C@@H]1c1ccccc1`, for which the TGI in the assay with ACHN renal was 0.235 µM; in the assay with EKVX NSCLC, above 33.3 µM; with HCT-15 colon, 0.107 µM; with HS 578T breast it was 2.13 µM; in the assay on MDA-N it was 2.34 µM; in the assay with OVCAR-3 ovarian it was 2.8 µM. Moreover, the TGI with OVCAR-5 ovarian is 0.206 µM; with SK-MEL-5 melanoma it was 0.0688 µM; with SW-620 colon, above 22.2 µM; in the assay on UO-31 renal, 0.0223 µM.

In the case of `N/C(=N\S(=O)(=O)c1ccc(-c2ccccn2)s1)Nc1ccc(Cl)cc1`, the TGI with ACHN renal is 33.6 µM; with EKVX NSCLC it was 26 µM; in the assay on HCT-15 colon, 38 µM; in the assay on HS 578T breast, 59.6 µM; in the assay with MDA-N it was 19.6 µM; with OVCAR-3 ovarian, 67.6 µM. The TGI with OVCAR-5 ovarian came out at 40.2 µM; in the assay on SK-MEL-5 melanoma it was 30.6 µM; with SW-620 colon, 45.1 µM; in the assay with UO-31 renal it was 34.9 µM.

In the case of `C/C(=N/NC(=S)N(C)C)c1ccccc1O`, the TGI in the assay with ACHN renal was above 76.5 µM; with EKVX NSCLC, above 100 µM; in the assay on HCT-15 colon it was above 100 µM; in the assay with HS 578T breast, above 100 µM; in the assay with MDA-N it was above 100 µM; in the assay with OVCAR-3 ovarian, above 26.3 µM. Further, the TGI in the assay on OVCAR-5 ovarian was above 100 µM; in the assay with SK-MEL-5 melanoma, above 49.8 µM; in the assay with SW-620 colon it was above 100 µM; in the assay on UO-31 renal it was above 100 µM.

On to `O=C(O)CN1CCCC(Cc2c[nH]c3ccccc23)C1` (stereo not drawn), for which the TGI with ACHN renal, in the assay with EKVX NSCLC, with HCT-15 colon, in the assay with HS 578T breast, in the assay on MDA-N and in the assay with OVCAR-3 ovarian was above 100 µM throughout. In addition, the TGI in the assay on OVCAR-5 ovarian, in the assay on SK-MEL-5 melanoma, in the assay on SW-620 colon and in the assay with UO-31 renal was above 100 µM each time.

As for `C[C@@H](NC(=O)[C@@H]1C[C@]1(C)CO)c1cccc2ccccc12`, the TGI in the assay with ACHN renal, with EKVX NSCLC, in the assay with HCT-15 colon, in the assay with HS 578T breast, with MDA-N and with OVCAR-3 ovarian was above 100 µM each time. The TGI in the assay with OVCAR-5 ovarian, with SK-MEL-5 melanoma, in the assay with SW-620 colon and in the assay on UO-31 renal was above 100 µM in each case.

In the case of `CCOC(=O)C1(C#N)C2(C#N)C(N)=NC(ON=C(C)C)(ON=C(C)C)C12C#N` (stereo not drawn), the TGI with ACHN renal, with EKVX NSCLC, with HCT-15 colon, with HS 578T breast, in the assay on MDA-N and in the assay on OVCAR-5 ovarian was above 100 µM each time. For the same compound, the TGI in the assay on SK-MEL-5 melanoma, in the assay with SW-620 colon and in the assay on UO-31 renal was above 100 µM each time.
